Assay results as given in patent US20110033560A1, “PREPARATION AND A COMPONENT INTENDED TO BE ADDED TO A TOBACCO PRODUCT” (BIOHIT OYJ, priority 2007, published 2011).

What was measured:
Format in all cases: in vivo, human
[1] = Moistened cysteine filter in cigarette holder, salivary acetaldehyde during smoking (Example 9); conditions: filter and cysteine in solid form (not moistened)
Source text: The entire filter of Marlboro Red was removed or, in some tests, a 2-3 mm piece of the original filter was left in the cigarette.
In the tests, the ready commercial cigarette holders/mouthpieces of Denicotea, www.denicotea.de, were used. In the cigarette holders/mouthpieces, plastic cylinder-shaped “containers” were used, in which the filter material was packed. The original content (intended for the removal of nicotine) of the containers was removed and replaced with the material that was used in the study. The outer dimensions of the container were: diameter 8 mm and length 35 mm.
Cellulose wadding (c. 100 mg), filter paper (Whattman),
Cysteine was dissolved in distilled water, 30-180 mg of L-Cysteine/1 ml. The manufacturer: Fluka, 30089.
[…] After this, the testees smoked the cigarettes that had been placed in the mouthpieces. During smoking, saliva samples were collected from those participating in the tests and the acetaldehyde in the saliva was analyzed by gas chromatography, Perkin-Elmer, HS40, headspace Gas Chromatograph.

[2] = Salivary acetaldehyde during smoking with L-cysteine sucking tablets, gas chromatography (Example 7); conditions: for average salivary acetaldehyde content immediately after smoking: 5 min smoking
Description: Five smokers (of the age of 29±2.8) participated in the study, in which three cigarettes were smoked (with cleaning periods in between). While smoking each cigarette (in 5 minutes time), the voluntaries sucked tablets blindfold, containing a placebo, 1.25 mg, 2.5 mg, 5 mg, 10 mg or 20 mg of L-cysteine. The acetaldehyde in the saliva samples was analysed by gas chromatography after 0, 5, 10, 20 minutes from starting to smoke.

[3] = Salivary acetaldehyde during smoking while sucking the Example 1 tablet (Example 6); conditions: sucking tablet with 20 mg cysteine, one cigarette, after the first 5 minutes, two testees
Description: Two individuals tested the preparation prepared according to Example 1. The salivary acetaldehyde contents of the testees were measured before smoking and then after 5 minutes during smoking, i.e., 0 min, 5 min, 10 min, and 15 min after the testees started smoking. Each testee smoked one cigarette and, at the same time, saliva was collected from their mouths, as they sucked placebo tablets. Smoking lasted for 5 min. In another test, the testees repeated the study by sucking tablets containing 20 mg of cysteine.

[4] = Salivary acetaldehyde after alcohol with slow-release buccal tablet (Example 10); conditions: buccal tablet 100 mg, alcohol 0.8 g/kg, every 20 min up to 320 min, FIG. 10
Description: The testees enjoyed alcohol in amounts of 0.8 g per kilo of body weight. Thereafter, the testees attached, under their upper lip, a buccal tablet that contained 100 mg of N-acetyl cysteine and that slowly released the acetyl cysteine. The salivary acetaldehyde levels were measured at intervals of 20 minutes up to 320 minutes. Throughout, the acetaldehyde contents of those using the acetyl cysteine tablets were lower than of those using the placebo.

| Structure (SMILES) | filtering of acetaldehyde [1] | reduction of amount of acetaldehyde compared with placebo ([2]; 1.25 mg tablet) | average salivary acetaldehyde content immediately after smoking ([2]; 5 mg L-cysteine sucking tablet) | inactivation of carcinogenic acetaldehyde in saliva during smoking ([2]; 5 mg, delivered with a melting tablet) | average salivary acetaldehyde content immediately after smoking ([2]; 10 mg L-cysteine sucking tablet) | average salivary acetaldehyde content immediately after smoking ([2]; 20 mg L-cysteine sucking tablet) | removal from saliva of acetaldehyde originating from tobacco ([2]; tablets of 5 mg, 10 and 20 mg, FIG. 4) | salivary acetaldehyde content [3] | salivary acetaldehyde contents compared with placebo [4] |
| --- | --- | --- | --- | --- | --- | --- | --- | --- | --- |
| N[C@@H](CS)C(=O)O [L-cysteine] | do not filter the acetaldehyde | about two thirds | 0 µM | completely inactivated | 0 µM | 0 µM | all of the acetaldehyde | non-measurable level | – |
| CC(=O)N[C@@H](CS)C(=O)O [N-acetyl cysteine] | – | – | – | – | – | – | – | – | lower |
